{"source": "patent EP1285918A1", "about": "“C7 Ester substituted taxanes as antitumor agents” (Florida State University Research Foundation, Inc., priority 2001, dated 2003)", "key": {"[1]": {"test_system": "HCT116 human colon carcinoma xenograft", "conditions": "18 mg/kg i.v. qd x 5, 10 mice/group, study end Day 60", "source_text": "Six groups consisting of ten mice in each group were made up of female Nu/Nu mice (8-9 weeks of age; implanted with 1 mm^3 HCT116 human […] carcinoma fragments in the flank). Another six groups consisting of ten mice in each group were made up of male Nu/Nu mice (6-7 weeks of age; implanted with 1 mm^3 HCT116 human […] carcinoma fragments in the flank). […] The study was terminated on Day 60.\nThe results are summarized in Table 19 for the female mice and Table 20 for the male mice. Included are mean days of survival (MDS), number of toxic deaths, number of survivors, number of complete or partial responses, and number with stable disease. The mean days of survival is the number of days after which an […] neoplasm reached a size of 1.5 g and the animal was euthanized. A complete response is obtained if the tumor is not palpable at the end of the study. A partial response is obtained if the tumor shrinks to a size smaller than its size on Day 1 of the study. […]"}, "[2]": {"test_system": "SKMES human lung cancer xenograft", "description": "Female Nu/Nu mice (6-8 weeks of age; implanted with 1 mm^3 SKMES lung carcinoma fragments in the flank) were sorted into treatment groups of six mice each. […] Treatment was administered as a single bolus on Day 1, and the study was terminated on Day 62.\nThe mean days of survival is the number of days after which a SKMES neoplasm reached a size of 2.0 g and the animal was euthanized. A complete response is obtained if the tumor is not palpable at the end of the study. A partial response is obtained if the tumor shrinks to a size smaller than its size on Day 1 of the study."}, "[3]": {"test_system": "HCT116 Human Colon Carcinoma Xenograft", "conditions": "for Mean Score: tumor score 1 to 10, group mean"}, "[4]": {"test_system": "A2780 Human Ovarian Carcinoma Xenografts", "description": "Other antitumor compounds were similarly formulated. […] The dosing volume was 0.3 ml per 20 g mouse.\nFemale NCr-nude mice (implanted subcutaneously with 1 mm^3 A2780 ovarian carcinoma fragments in the flank) were sorted into treatment groups of five mice each, except for the Taxotere treatment group including six mice. […] Dosing was initiated on Day 1. The antitumor compounds were given i.v. at an estimated maximum tolerated dose (MTD) appropriate for each agent on a qd x 1 schedule (single administration of compound). […] Taxotere was given i.v. on a qd x 1 schedule at a dose of 70 mg/kg. The vehicle was administered i.v. to control mice in Group 1 on the qd x 1 schedule. Treatment groups are detailed in Table 7. The study was terminated on Day 60.\nThe results are summarized in Table 8 and include mean days of survival (MDS), number of toxic deaths, number of survivors, number of complete or partial responses, and number with stable disease. The mean days of survival is the number of days after which a neoplasm reached a size of 2.0 g and the animal was euthanized. A complete response is obtained if the tumor is not palpable at the end of the study. A partial response is obtained if the tumor shrinks to a size smaller than its size on Day 1 of the study."}, "[5]": {"test_system": "A375 Human Melanoma Xenograft", "description": "Female nu/nu mice (6-8 weeks of age; implanted subcutaneously with 1 mm^3 A375 melanoma fragments in the flank) were sorted into one control and four treatment groups of ten mice each (group mean tumor size of 96-98 mg). […] The study was terminated on Day 60.\nThe mean days of survival is the number of days after which a neoplasm reached a size of 2.0 g and the animal was euthanized. A complete response is obtained if the tumor is not palpable at the end of the study. A partial response is obtained if the tumor shrinks to a size smaller than its size on Day 1 of the study."}, "[6]": {"conditions": "40 mg/kg single oral bolus Day 1, 6 mice/group, study end Day 62"}, "[7]": {"conditions": "HCT116, Taxol i.p. 18 mg/kg qd x 5"}, "[8]": {"conditions": "HCT116, Taxol i.p. 18 mg/kg qd x 5, 5 mice, Day 60"}, "[9]": {"conditions": "HCT116, i.v. Day 1 (Taxol 36 mg/kg split dose, 1393 73 mg/kg single dose), 5 mice/group, Day 60"}, "[10]": {"conditions": "Taxol i.p. 15 mg/kg qd x 5, 5 mice, Day 60"}, "[11]": {"conditions": "i.v. qd x 1 (mg/kg: Taxol 24, 1351 75.3, 1401 107.6, 1418 107.6, Taxotere 70), Day 60"}, "[12]": {"conditions": "40 mg/kg single oral bolus, 10 mice/group, study end Day 60"}}, "note": "Like-named read-outs stand apart in the source and are kept apart here."}
{"compound": "CC(=O)O[C@H]1C(=O)[C@@]2(C)[C@H]([C@H](OC(=O)c3ccccc3)[C@]3(O)C[C@H](OC(=O)[C@H](O)[C@@H](NC(=O)c4ccccc4)c4ccccc4)C(C)=C1C3(C)C)[C@]1(OC(C)=O)CO[C@@H]1C[C@@H]2O", "note": "[Taxol, paclitaxel, reference compound]", "values": [{"measurement": "Complete Responses", "setting": "[1]; female mice", "value": 4}, {"measurement": "Partial Responses", "setting": "[1]; female mice", "value": 1}, {"measurement": "Stable Disease", "setting": "[1]; female mice", "value": 1}, {"measurement": "Survivors", "setting": "[1]; female mice", "value": 6}, {"measurement": "Toxic Deaths", "setting": "[1]; female mice", "value": 1}, {"measurement": "Complete Responses", "setting": "[1]; male mice", "value": 1}, {"measurement": "Partial Responses", "setting": "[1]; male mice", "value": 2}, {"measurement": "Stable Disease", "setting": "[1]; male mice", "value": 1}, {"measurement": "Survivors", "setting": "[1]; male mice", "value": 4}, {"measurement": "Toxic Deaths", "setting": "[1]; male mice", "value": 0}, {"measurement": "% Total Response", "setting": "[2]; [6]", "value": 0, "unit": "%"}, {"measurement": "Complete Responses", "setting": "[2]; [6]", "value": 0}, {"measurement": "Partial Responses", "setting": "[2]; [6]", "value": 0}, {"measurement": "Stable Disease", "setting": "[2]; [6]", "value": 0}, {"measurement": "Survivors", "setting": "[2]; [6]", "value": 0}, {"measurement": "Toxic Deaths", "setting": "[2]; [6]", "value": 1}, {"measurement": "MDS (n)", "setting": "[2]; 40 mg/kg single oral bolus Day 1, 6 mice/group, study end Day 62, days until tumor reached 2.0 g", "value": "9.2±1.4 (5) days"}, {"measurement": "activity", "setting": "[2]; SKMES, Taxol orally 40 mg/kg single bolus (Group 10)", "value": "not active"}, {"measurement": "increase in survival compared to control Group 1", "setting": "[3]; HCT116, Taxol 36 mg/kg i.v. qd x 1", "value": 24, "unit": "%"}, {"measurement": "survival extension compared to Group 1 control mice", "setting": "[3]; [7]", "value": 84, "unit": "%"}, {"measurement": "Complete Response", "setting": "[3]; [8]", "value": 0}, {"measurement": "Stable Disease", "setting": "[3]; [8]", "value": 0}, {"measurement": "Survivors", "setting": "[3]; [8]", "value": 1}, {"measurement": "Toxic Deaths", "setting": "[3]; [8]", "value": 0}, {"measurement": "Mean Score", "setting": "[3]; [7]", "value": "3.6 ± 1.4"}, {"measurement": "MDS (n)", "setting": "[3]; HCT116, i.v. Day 1 (Taxol 36 mg/kg split dose, 1393 73 mg/kg single dose), 5 mice/group, 2.0 g cut-off, Day 60", "value": "27.5 ± 1.7 (4) days"}, {"measurement": "Complete Response", "setting": "[3]; [9]", "value": 0}, {"measurement": "Partial Response", "setting": "[3]; [9]", "value": 0}, {"measurement": "Survivors", "setting": "[3]; [9]", "value": 1}, {"measurement": "Toxic Deaths", "setting": "[3]; [9]", "value": 0}, {"measurement": "Mean Score", "setting": "[3]; HCT116, i.v. Day 1 (Taxol 36 mg/kg split dose, 1393 73 mg/kg single dose)", "value": "2.2 ± 0.5"}, {"measurement": "tolerability", "setting": "[3]; mouse, in vivo, iv, 73 mg/kg", "value": "well-tolerated"}, {"measurement": "toxicity", "setting": "[4]; Taxol i.p. 15 mg/kg qd x 5", "value": "highly toxic"}, {"measurement": "Complete Response", "setting": "[4]; [10]", "value": 0}, {"measurement": "Partial Response", "setting": "[4]; [10]", "value": 0}, {"measurement": "Stable Disease", "setting": "[4]; [10]", "value": 0}, {"measurement": "Survivors", "setting": "[4]; [10]", "value": 0}, {"measurement": "Mean Score", "setting": "[4]; Taxol i.p. 15 mg/kg qd x 5, tumor score 1 to 10, group mean", "value": "0.6 ± 0.6"}, {"measurement": "MDS (n)", "setting": "[4]; i.v. qd x 1 (mg/kg: Taxol 24, 1351 75.3, 1401 107.6, 1418 107.6, Taxotere 70), 2.0 g cut-off, Day 60", "value": "21.9 ± 5.5 (5) days"}, {"measurement": "Complete Response", "setting": "[4]; [11]", "value": 0}, {"measurement": "Partial Response", "setting": "[4]; [11]", "value": 0}, {"measurement": "Survivors", "setting": "[4]; [11]", "value": 1}, {"measurement": "Toxic Deaths", "setting": "[4]; [11]", "value": 0}, {"measurement": "Mean Score", "setting": "[4]; i.v. qd x 1 (mg/kg: Taxol 24, 1351 75.3, 1401 107.6, 1418 107.6, Taxotere 70), tumor score 1 to 10, group mean", "value": "1.8 ± 0.4"}, {"measurement": "survival extension compared to Group 1 controls", "setting": "[4]; i.v. qd x 1 (mg/kg: Taxol 24, 1418 107.6, Taxotere 70)", "value": 87, "unit": "%"}, {"measurement": "Complete Response", "setting": "[5]; [12]", "value": 0}, {"measurement": "Partial Response", "setting": "[5]; [12]", "value": 1}, {"measurement": "Stable Disease", "setting": "[5]; [12]", "value": 1}, {"measurement": "Survivors", "setting": "[5]; [12]", "value": 2}, {"measurement": "Toxic Deaths", "setting": "[5]; [12]", "value": 0}, {"measurement": "MDS (n)", "setting": "[5]; 40 mg/kg single oral bolus, 10 mice/group, study end Day 60, days until tumor reached 2.0 g", "value": "23.7 ± 3.0 (8) days"}, {"measurement": "activity", "setting": "[5]; A375, paclitaxel 40 mg/kg single oral bolus (Group 2)", "value": "not active"}]}
